Source: patent US20230098667A1, “BENZODIAZEPINE DERIVATIVES, COMPOSITIONS, AND METHODS FOR TREATING COGNITIVE IMPAIRMENT” (priority 2019, published 2023)
pKi: −log10 of the molar value. Entries after “also recorded” stand apart in the source; their conditions may differ.

How the values were obtained:
aged-impaired (AI) rats [1] = test: Morris water maze behavioral task; type: in vivo, rat; details: 100 μg ICV
Description: The effects of 6,6 dimethyl-3-(3-hydroxypropyl)thio-1-(thiazol-2-yl)-6,7-dihydro-2-benzothiophen-4(5H)-one on the in vivo spatial memory retention of aged-impaired (AI) rats were assessed in a Morris water maze behavioral task. A water maze is a pool surrounded with a novel set of patterns relative to the maze.
Cognitively impaired aged rats were implanted unilaterally with a cannula into the lateral ventricle. Stereotaxic coordinates were 1.0 mm posterior to bregma, 1.5 mm lateral to midline, and 3.5 mm ventral to the skull surface. After about a week of recovery, the rats were pre-trained in a water maze for 2 days (6 trials per day) to locate a submerged escape platform hidden underneath the surface of the pool, in which the escape platform location varied from day to day. No intracerebroventricular (ICV) infusion was given during pre-training.
After pre-training, rats received ICV infusion of either 100 μg 6,6 dimethyl-3-(3-hydroxypropyl)thio-1-(thiazol-2-yl)-6,7-dihydro-2-benzothiophen-4(5H)-one (n=6) in 5 μl DMSO or vehicle DMSO (n=5) 40 min prior to water maze training and testing. Training consisted of 8 trials per day for 2 days where the hidden escape platform remained in the same location. Rats were given 60 seconds to locate the platform with a 60 seconds inter-trial interval. The rats were given a probe test (120 seconds) 24 hr. after the end of training where the escape platform was removed. During the training, there were 4 blocks, where each block had 4 training trials.
During a test trial 24 hr. after training, the escape platform was removed. The search/swim pattern of the rats was used to measure whether the rats remember where the escape platform was located during pre-trial training in order to test for the long-term memory of the rats. In this trial, “target annulus” is a designated area 1.5 times the size of the escape platform around the area where the platform was located during pre-trial training. “Opposite annulus” is a control area of the same size as the size of the target annulus, which is located opposite to the target annulus in the pool. If the rats had good long term memory, they would tend to search in the area surrounding the location where the platform was during the pre-trial training (i.e., the “target” annulus; and not the “opposite” annulus). “Time in annulus” is the amount of time in seconds that the rat spent in the target or opposite annulus area. “Number (#) of crossings” in annulus is the number of times the rat swam across the target or opposite annulus area.

[2] = target: T1, GABAA receptors α5β3γ2 (GABA α5) (Homo sapiens, UniProt P18507+P31644); test: Binding activity on GABAAR: inhibition of [3H]Ro15-1788 binding, membranes of Ltk cells; details: α5β3γ2 Ltk cell membranes
T1 construct: membranes
T1 sequence (P31644 32-462): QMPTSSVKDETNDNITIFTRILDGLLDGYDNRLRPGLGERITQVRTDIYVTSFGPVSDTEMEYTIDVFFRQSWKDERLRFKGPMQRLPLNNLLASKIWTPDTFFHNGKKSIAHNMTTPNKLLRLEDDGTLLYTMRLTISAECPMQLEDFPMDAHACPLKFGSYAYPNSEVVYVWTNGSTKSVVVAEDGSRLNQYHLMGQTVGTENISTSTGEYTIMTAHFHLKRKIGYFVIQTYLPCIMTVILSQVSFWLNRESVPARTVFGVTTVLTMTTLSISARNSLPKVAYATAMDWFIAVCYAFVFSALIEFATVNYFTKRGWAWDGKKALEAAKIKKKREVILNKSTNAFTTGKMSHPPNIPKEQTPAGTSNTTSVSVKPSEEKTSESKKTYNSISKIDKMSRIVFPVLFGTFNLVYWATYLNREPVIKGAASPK
T1 sequence (P28472 26-473 partner): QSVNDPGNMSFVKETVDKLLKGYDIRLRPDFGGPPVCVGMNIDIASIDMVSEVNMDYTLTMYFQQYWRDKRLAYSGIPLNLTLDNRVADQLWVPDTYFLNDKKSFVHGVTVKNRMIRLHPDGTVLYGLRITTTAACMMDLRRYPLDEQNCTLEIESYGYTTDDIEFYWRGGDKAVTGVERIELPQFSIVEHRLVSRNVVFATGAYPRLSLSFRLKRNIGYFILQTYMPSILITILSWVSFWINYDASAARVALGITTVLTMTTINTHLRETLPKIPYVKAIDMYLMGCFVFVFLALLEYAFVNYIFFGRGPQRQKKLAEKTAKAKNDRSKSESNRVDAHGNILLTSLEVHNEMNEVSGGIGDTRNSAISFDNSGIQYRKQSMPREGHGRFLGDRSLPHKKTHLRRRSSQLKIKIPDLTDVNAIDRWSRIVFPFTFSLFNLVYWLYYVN
T1 sequence (P18507 40-467 limits assumed): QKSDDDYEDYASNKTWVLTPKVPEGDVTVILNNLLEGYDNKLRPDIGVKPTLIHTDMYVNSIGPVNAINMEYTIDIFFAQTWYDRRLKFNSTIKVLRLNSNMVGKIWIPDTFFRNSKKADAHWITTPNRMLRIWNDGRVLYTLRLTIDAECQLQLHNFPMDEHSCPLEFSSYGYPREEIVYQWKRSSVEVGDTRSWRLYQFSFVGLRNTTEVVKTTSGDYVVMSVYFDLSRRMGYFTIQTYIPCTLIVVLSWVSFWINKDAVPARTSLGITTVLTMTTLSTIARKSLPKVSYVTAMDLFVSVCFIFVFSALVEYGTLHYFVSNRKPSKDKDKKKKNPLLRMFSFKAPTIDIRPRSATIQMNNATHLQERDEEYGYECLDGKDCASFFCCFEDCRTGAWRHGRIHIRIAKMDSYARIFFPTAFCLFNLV
Description: Tissue culture and Membrane Preparation: The binding was performed on Ltk cells stably expressing GABAA receptors: α1β1γ2, α2β3γ2, α3β3γ2 and α5β3γ2 (provided by Merck Co., NJ, USA). Cells were seeded in 100 mm culture plates in DMEM/F12 medium containing 10% serum and antibiotics in 5% CO2 and allowed to grow for 1-2 days. GABAAR expression was then induced by dexamethasone as follows: 0.5 μM for 1 day for α5 containing and 2 μM for 3 days for α1, α2 and α3 containing GABAARs. After induction, cells were collected by scraping into Dulbecco's Phosphate buffered saline (DPBS, pH 7.4, Invitrogen, Carlsbad, Calif., USA) and centrifuged at 150×g for 10 min. The pellet was washed twice by re-suspension and centrifugation. The cell pellets from at least 5 different preps were combined, suspended in the binding assay buffer (50 mM KH2PO4; 1 mM EDTA; 0.2 M KCl, pH 7.4) and membranes prepared by sonication (3-5 times, 30 sec) using Branson Sonifier 150 (G. Heinmann, Germany). Protein content was determined using BCA assay (Bio-Rad Labs, Reinach, Switzerland) with Bovine Serum Albumin (Sigma Aldrich, St. Louis, Mo., USA) as the standard. Aliquots were prepared and stored at −20° C. for further use in binding assays.
Ligand Binding: Saturation binding curves were obtained by incubating membranes with increasing concentrations (0.01-8 nM) of [^3H]Rol5-1788 (Flumazepil, 75-85 Ci/mmol, PerkinElmer, MA, USA), with nonspecific binding measured in the presence of 10 μM diazepam.
All binding assays were performed for 1 h at 4° C. in assay buffer. The total assay volume was 0.5 ml containing 0.2 mg/ml protein for α5 and 0.4 mg/ml for α1, α2, and α3 containing GABAAR membranes. Incubations were terminated by filtration through GF/B filters using a 24-Cell Harvestor (Brandel, Gaithersburg, Md., USA) followed by 3 washes with ice-cold assay buffer. Filters were transferred to scintillation vials, 5 ml scintillation liquid added, vortex-mixed and kept in dark. Next day, radioactivity was obtained using a scintillation counter (Beckman Coulter, Brea, Calif., USA). All assays were performed in triplicate.
Data Analyses: Saturation and inhibition curves were obtained using GraphPad Prism software (GraphPad Software, Inc., CA, USA).

GABAA α5 receptor = target: T2, GABAA α5 receptor (Rattus norvegicus, UniProt P19969); test: GABAA α5 receptor occupancy with Ro 15-4513 tracer; type: in vivo, Long Evans rats; details: i.v.
T2 construct: from tissue; host or cells: brain of living Long Evans rats; hippocampus and cerebellum dissected after i.v. dosing
T2 sequence (P19969 32-464 limits assumed): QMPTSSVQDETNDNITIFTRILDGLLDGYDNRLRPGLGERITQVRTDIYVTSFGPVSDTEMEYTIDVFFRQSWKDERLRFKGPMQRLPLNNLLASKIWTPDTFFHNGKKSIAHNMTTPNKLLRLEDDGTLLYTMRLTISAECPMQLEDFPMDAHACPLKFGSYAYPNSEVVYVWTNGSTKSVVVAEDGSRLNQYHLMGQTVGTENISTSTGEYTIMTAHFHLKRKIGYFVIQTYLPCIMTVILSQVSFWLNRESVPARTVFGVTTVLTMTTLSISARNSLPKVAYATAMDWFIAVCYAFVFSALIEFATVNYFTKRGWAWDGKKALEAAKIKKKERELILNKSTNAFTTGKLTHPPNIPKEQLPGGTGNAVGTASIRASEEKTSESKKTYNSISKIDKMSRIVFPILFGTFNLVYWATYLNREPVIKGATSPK
Excerpt: Food and water were available ad libitum.

aged-impaired (AI) rats [3] = test: Radial Arm Maze (RAM) behavioral task, four-hour delay; type: in vivo, rat
Description: The same experiment was repeated using the same vehicle control and doses of ethyl 3-methoxy-7-methyl-9H-benzo[f]imidazo[1,5-a][1,2,4]triazolo[4,3-d][1,4]diazepine-10-carboxylate, where the vehicle control was tested 5 times, the 3 mg/kg dose of ethyl 3-methoxy-7-methyl-9H-benzo[f]imidazo[1,5-a][1,2,4]triazolo[4,3-d][1,4]diazepine-10-carboxylate was tested 4 times, and the other doses of ethyl 3-methoxy-7-methyl-9H-benzo[f]imidazo[1,5-a][1,2,4]triazolo[4,3-d][1,4]diazepine-10-carboxylate were tested twice.
Parametric statistics (paired t-tests) was used to compare the retention test performance of the AI rats in the four-hour delay version of the RAM task in the context of different doses of ethyl 3-methoxy-7-methyl-9H-benzo[f]imidazo[1,5-a][1,2,4]triazolo[4,3-d][1,4]diazepine-10-carboxylate and vehicle control (see FIG. 5).

[4] = probe test 24 hr. after training

With `CC1(C)CC(=O)c2c(SCCCO)sc(-c3nccs3)c2C1` [6,6 dimethyl-3-(3-hydroxypropyl)thio-1-(thiazol-2-yl)-6,7-dihydro-2-benzothiophen-4(5H)-one] the “number of crossings of target annulus versus opposite annulus” value (aged-impaired (AI) rats [1]; [4]) was “crossed the “target annulus” more often”, the “time in target annulus versus opposite annulus” value (aged-impaired (AI) rats [1]; [4]) was “spent significantly more time in the target annulus” and the “time to find the escape platform (escape latency)” value (aged-impaired (AI) rats [1]; training block 1) was “about 24 seconds”. The “time to find the escape platform (escape latency)” value (aged-impaired (AI) rats [1]; training block 4) was “about 9.6 seconds”.

Compound `COCc1nnc2n1Cc1c(C#Cc3cnc(OC)c(C(F)(F)F)c3)ncn1-c1ccc(OC)cc1-2` [Compound 731] has a pKi [2] of 6.00 to 7.00.

`COc1ccc2c(c1)-n1nncc1Cc1c(C#Cc3cnc(OC)c(F)c3)ncn1-2` [Compound 732] was tested, and the pKi [2] was 6.00 to 7.00.

For `COc1ncc(C#Cc2ncn3c2Cc2cnnn2-c2cc(Cl)ccc2-3)cc1F` [Compound 734], the pKi [2] was > 7.00.

For `COc1ccc2c(c1)-n1nncc1Cc1c(C#Cc3cn(C)nc3OC)ncn1-2` [Compound 735], the pKi [2] was > 7.00.

With `COCc1nnc2n1Cc1c(C#Cc3cn(C)nc3OC)ncn1-c1ccc(OC)cc1-2` [Compound 736] the pKi [2] was > 7.00.

`COCc1nnc2n1Cc1c(C#Cc3cn(C)nc3OC)ncn1-c1ccc(Cl)cc1-2` [Compound 737] was tested, and the pKi [2] was > 7.00.

With `COCc1nnn2c1Cc1c(C#Cc3cn(C)nc3OC)ncn1-c1ccc(Cl)cc1-2` [Compound 738] the pKi [2] was > 7.00.

With `COCc1nnn2c1Cc1c(C#Cc3cnc(C)n3C)ncn1-c1ccc(Cl)cc1-2` [Compound 740] the pKi [2] was > 7.00.

In the case of `CCOC(=O)c1ncn2c1CN(C)C(=O)c1cc(N=[N+]=[N-])ccc1-2` [Ro 15-4513], the “levels of Ro 15-4513 in cerebellum” value (GABAA α5 receptor; tracer 1 μg/kg, after vehicle) was 0.36 ± 0.02 ng/g, the “levels of Ro 15-4513 in hippocampus” value (GABAA α5 receptor; tracer 1 μg/kg, after vehicle) was 1.93 ± 0.05 ng/g and the “levels of Ro 15-4513 in hippocampus compared with cerebellum” value (GABAA α5 receptor; tracer 1 μg/kg, after vehicle) was > 5 fold.

With `CCOC(=O)c1ncn2c1Cn1c(C)nnc1-c1cc(OC)ccc1-2` [ethyl 3-methoxy-7-methyl-9H-benzo[f]imidazo[1,5-a][1,2,4]triazolo[4,3-d][1,4]diazepine-10-carboxylate] the “effect on Ro 15-4513 binding in hippocampus and cerebellum” value (GABAA α5 receptor; 0.01-10 mg/kg) was “reduced Ro 15-4513 binding in hippocampus, without affecting cerebellum levels of Ro 15-4513; also recorded: blocked the binding of Rol54513 in the hippocampus but did not affect binding of Rol5413 in the cerebellum”, the “GABAA α5 receptor occupancy” value (GABAA α5 receptor; 10 mg/kg) was > 90% and the “memory performance relative to vehicle control” value (aged-impaired (AI) rats [3]; 3 mg/kg) was “significantly improved memory performance”. The “memory performance relative to vehicle control” value (aged-impaired (AI) rats [3]; 10 mg/kg) was “significantly improved memory performance”.
